Tests used:
[1] = target: T1, USP8CD (Homo sapiens, UniProt P40818); assay: Reversibility (dilution / gel filtration) assay of USP8 inhibition; type: biochemical; conditions: USP8CD 60 nM, activity before and after gel column filtration
T1 construct: an in-house purified catalytic domain of USP8 (USP8CD) was used at a concentration of 80 nM; made in house
T1 sequence (P40818 777-1109 limits assumed): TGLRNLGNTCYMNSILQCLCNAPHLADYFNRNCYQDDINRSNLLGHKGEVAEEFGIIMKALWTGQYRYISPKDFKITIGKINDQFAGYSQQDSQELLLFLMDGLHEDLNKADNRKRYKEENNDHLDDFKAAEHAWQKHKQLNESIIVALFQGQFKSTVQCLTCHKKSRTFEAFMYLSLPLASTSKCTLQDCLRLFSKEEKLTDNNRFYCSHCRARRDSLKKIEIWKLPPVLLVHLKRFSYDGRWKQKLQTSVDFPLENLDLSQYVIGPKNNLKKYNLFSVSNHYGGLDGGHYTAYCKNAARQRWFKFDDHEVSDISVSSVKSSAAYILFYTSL
Method: DUB activity relies on a conserved catalytic cysteine residue which is particularly sensitive to irreversible oxidation by reactive oxygen species (ROS) (Lee et al., 2013). […] In this setup, purified USP8CD was used at a concentration of 60 nM and incubated for 20 min with either the inhibitory compound or with DMSO in buffered conditions. The catalytic activity of each mix was monitored on Ub-Rho substrate (Ubiquigent ref. 60-0117-050) used at a final concentration of 0.1 μM before and after filtration on a gel column (Millipore UFC30GV25). If a catalytic activity is detected after column filtration, the compound is a reversible inhibitor.

[2] = system: POMC gene; assay: POMC encoding gene expression (quantitative RT-PCR, normalized to HPRT); type: cell-based, mouse; conditions: 10, 20, 30 and 36 μM, 24 hours, vs DMSO
Method: Each dot represents the amount of POMC encoding transcripts normalized to the amount of transcripts encoding the housekeeping gene HPRT and then compared to the DMSO control condition. Mean of technical triplicates with errors bars.
ACTH production depends on the activation of the proopiomelanocortin (POMC) gene encoding the ACTH precursor.
3.75×10^5 AtT20 cells were seeded on polylysine-coated 6-well culture microplates on 2.4 mL complete medium. After 24 hours, cells were treated with stock compounds to a final DMSO concentration of 0.5%. After 24 hours of treatment, cells were briefly rinsed with 37° C. DPBS (no calcium, no magnesium modification), lysed with the LBP reagent from the NucleoSpin® RNA Plus kit (Macherey-Nagel 740984.50) and then frozen at −70° C. before continuing with the RNA extraction protocol as per manufacturer's instructions. 1 μg RNA was used to synthesize cDNA using the AffinityScript QPCR cDNA Synthesis Kit (Agilent #600559). qPCR reaction was performed using the primers against the mouse POMC gene (5′-CCTCCTGCTTCAGACCTCCATAGAT-3′ and 5′-GTCTCCAGAGAGGTCGAGTTT). […] Detection was done using the Brilliant II SYBR® Green QPCR Master Mix (Agilent #600828), and readings were done using a Stratagene Mx3005P equipment.

## Cc1cc(C(C#N)c2ccc(Cl)cc2)c(Cl)cc1NC(=O)c1cc(I)cc(I)c1O (centres unmarked) [Closantel, reference compound]
[1]
  reversibility of USP8 inhibition: reversible
[2]
  POMC mRNA species (FIG. 8): strong decrease

Source: patent US20260207535A1, “CRIBLAGE INHIBITEURS USP8” (COMMISSARIAT A L'ENERGIE ATOMIQUE ET AUX ENERGIES …, priority 2022, published 2026)
